The values below are quoted from earlier work in patent US20100137247A1, “Anti-inflammatory compositions and methods” (Searete LLC, a limited liability corporation of the State …, priority 2008, published 2010).

Structures are written as SMILES.

For data set [1] the following is noted: 400 mg infused over one hour, single agent.
The subject of data set [2] is Src family kinase.
The test system of data set [3] is proteasomal activity in cultured breast cancer cells. As to conditions: disulfiram bound to copper.
Data set [4] relates to lethal septic shock. As to conditions: mice.

In the case of `CCN(CC)CCCC(C)Nc1ccnc2cc(Cl)ccc12.O=P(O)(O)O.O=P(O)(O)O` (stereo not shown) [Chloroquine phosphate, 7-chloro-4-[[4-(diethylamino)-1-methylbutyl]amino]quinoline phosphate (1:2)], the tolerability of infusion entry in data set [1] was “without complication”. Consider `CCN(CC)CCCC(C)Nc1ccnc2cc(Cl)ccc12` (stereo not shown) [Chloroquine], for which the “inhibition of CpG-induced Src family kinase activation or its dependent cellular responses” value in data set [2] is given as “does not inhibit”.

For `CCN(CC)C(=S)SSC(=S)N(CC)CC` [Disulfiram, 1-(diethylthiocarbamoyldisulfanyl)-N,N-diethyl-methanethioamide], the proteasomal activity entry in data set [3] is recorded as “inhibits proteasomal activity”. Consider `Cl.Cl.Nc1ccccc1Oc1ccc2c(N)nsc2c1` [Example M62812, 3-amino-6-(2-aminophenoxy)-1,2-benzisothiazole dihydrochloride], for which the “prevention of lethal septic shock” value in data set [4] was “prevents lethal septic shock”.
